Test [1] addresses T1, LasB (Pseudomonas aeruginosa, UniProt Q02RJ6).
T1 construct: made in house
Nature of the test: biochemical. The format is biochemical. The following applies: for inhibition at 100 µM: read-out: % inh LasB @100 µM; for fold drop in activity compared to the 4-Me derivative (4a): vs 4a.

Test [2] concerns the target ColH-PD (Hathewaya histolytica, UniProt Q46085). In words: biochemical. The settings on record: for inhibition at 1 µM: read-out: % inhibition ColH-PD @1 µM. The format is biochemical, Clostridium histolyticum.
[3] abbreviates: FRET-based assay, read-out: LasB IC50.

Where two headings read alike, the source gives them in different places.

Here are results for 26 molecules from publication PMC10755728, “Inhibitors of the Elastase LasB for the Treatment of Pseudomonas aeruginosa Lung Infections” (ACS Central Science, 2023).

T1 sequence (Q02RJ6 198-498): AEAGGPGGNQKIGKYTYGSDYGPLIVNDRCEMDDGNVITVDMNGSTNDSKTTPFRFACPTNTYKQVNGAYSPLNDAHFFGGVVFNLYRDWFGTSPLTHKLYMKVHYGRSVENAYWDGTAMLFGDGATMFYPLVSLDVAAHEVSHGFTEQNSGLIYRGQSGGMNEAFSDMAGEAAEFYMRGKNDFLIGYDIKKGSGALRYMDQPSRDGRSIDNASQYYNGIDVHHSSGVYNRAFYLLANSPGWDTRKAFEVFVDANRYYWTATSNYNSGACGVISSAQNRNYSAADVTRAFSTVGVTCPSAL
ColH-PD, sequence (Q46085 331-721 limits assumed): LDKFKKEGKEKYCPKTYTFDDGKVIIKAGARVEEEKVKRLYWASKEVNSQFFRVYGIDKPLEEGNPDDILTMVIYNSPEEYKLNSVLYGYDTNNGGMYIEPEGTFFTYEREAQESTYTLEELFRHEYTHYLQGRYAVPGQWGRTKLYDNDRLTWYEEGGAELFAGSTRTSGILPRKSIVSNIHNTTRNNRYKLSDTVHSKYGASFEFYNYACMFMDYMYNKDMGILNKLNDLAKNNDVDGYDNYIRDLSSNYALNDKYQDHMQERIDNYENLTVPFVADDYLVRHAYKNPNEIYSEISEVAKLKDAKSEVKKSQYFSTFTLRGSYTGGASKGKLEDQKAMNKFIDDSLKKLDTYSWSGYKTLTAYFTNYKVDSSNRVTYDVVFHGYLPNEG

Turning to `Cc1ccc(NC(=O)[C@H](CC(C)C)NC(=O)OC(C)(C)C)cc1` [Compound 3a], in test [1], the inhibition at 100 µM was less than 10%.

What is called IC50 is the concentration needed to halve the response being measured. As for `CC(C)CC(C(=O)Nc1ccc2c(c1)CCC2)P(=O)(O)O` (stereo not drawn) [Compound 4o], the IC50 in test [1] (setting [3]) was 44.3 ± 4.5 nM.

`Cc1ccc(NC(=O)C(CC(C)C)n2ccnc2)cc1` (stereo not drawn) [Compound 3k]: in test [1], the inhibition at 100 µM is 14 ± 4%.

In the case of `Cc1ccc(NC(=O)[C@@H](N)CC(C)C)cc1` [Compound 3b], the inhibition at 100 µM in test [1] is less than 10%.

On to `CC(C)CC(C(=O)Nc1ccc2ccccc2c1)P(=O)(O)O` (stereo not drawn) [Compound 4n], for which, in test [1] (setting [3]), the IC50 came out at 63.6 ± 9.9 nM.

With `Cc1ccc(NC(=O)C(Cc2ccccc2)P(=O)(O)O)cc1` (stereo not drawn) [Compound 4x], the IC50 in test [1] (setting [3]) came out at 137 ± 33 nM.

Regarding `Cc1ccc(NC(=O)C(CC(C)C)c2nn[nH]n2)cc1` (stereo not drawn) [Compound 3j], the inhibition at 100 µM in test [1] was less than 10%.

On to `COc1ccc(NC(=O)C(CC(C)C)P(=O)(O)O)cc1` (stereo not drawn) [Compound 4f], for which the IC50 in test [1] (setting [3]) is 51.8 ± 10.4 nM. In test [2], the inhibition at 1 µM was less than 10%.

`CC(C)CC(C(=O)Nc1ccc(C(N)=O)nc1)P(=O)(O)O` (stereo not drawn) [Compound 4r]: it took 220 ± 20 nM to reach half-maximal inhibition in test [1] (LasB IC50, FRET-based assay) (IC50).

As for `Cc1ccc(NC(=O)C(CC(C)C)P(=O)(O)O)c(C)c1` (stereo not drawn) [Compound 4e], in test [1] (setting [3]), the IC50 worked out at 84.5 ± 2.7 nM. Moreover, in test [1], the “fold drop in activity compared to the 4-Me derivative (4a)” value is reported as approximately 2 fold.

As for `Cc1ccc(NC(=O)C(CC2CCCCC2)P(=O)(O)O)cc1` (stereo not drawn) [Compound 4z], the IC50 in test [1] (setting [3]) was found to be 2030 nM.

For `CC(C)CC(C(=O)Nc1ccc(Br)cc1)P(=O)(O)O` (stereo not drawn) [Compound 4j], the IC50 in test [1] (setting [3]) was found to be 48.6 ± 2.3 nM.

Consider `CCCC(C(=O)Nc1ccc(OC)cc1)P(=O)(O)O` (stereo not drawn) [Compound 4ab], for which, in test [1] (LasB IC50, FRET-based assay), the midpoint of inhibition, the IC50, lay at 1110 nM.

On to `Cc1ccc(NC(=O)C(CC(C)C)OS(N)(=O)=O)cc1` (stereo not drawn) [Compound 3c], for which, in test [1] (LasB IC50, FRET-based assay), the IC50 was 53000 ± 4000 nM.

For the molecule `O=C(Nc1ccc(C(F)(F)F)cc1)C(Cc1ccccc1)P(=O)(O)O` (stereo not drawn) [Compound 4y], the IC50 in test [1] (setting [3]) stood at 101.5 ± 0.9 nM.

For `CCOC(=O)C(CC(C)C)C(=O)Nc1ccc(C)cc1` (stereo not drawn) [Compound 3d], the inhibition at 100 µM in test [1] is less than 10%.

As for `Cc1ccc(NC(=O)C(CC(C)C)P(=O)(O)O)c(F)c1` (stereo not drawn) [Compound 4d], the IC50 in test [1] (setting [3]) was found to be 116 ± 16.1 nM. The “fold drop in activity compared to the 4-Me derivative (4a)” value in test [1] is on record as approximately 2 fold. Moreover, in test [2], the inhibition at 1 µM is less than 10%.

In test [1] (LasB IC50, FRET-based assay), `CCCC(C(=O)Nc1ccc(C(C)=O)cc1)P(=O)(O)O` (stereo not drawn) [Compound 4ad] registered an IC50 of 870 ± 30 nM.

With `CC(C)CC(C(=O)Nc1ccc(Cl)cn1)P(=O)(O)O` (stereo not drawn) [Compound 4p], the IC50 in test [1] (setting [3]) is 500 ± 40 nM. The “fold more potent than 4q” value in test [1] (vs 4q) came out at 2 fold.

On to `Cc1ccc(NC(=O)C(CC(C)C)C(=O)O)cc1` (stereo not drawn) [Compound 3e], for which the inhibition at 100 µM in test [1] was found to be 46 ± 3%.

For the molecule `CC(C)CC(C(=O)Nc1ccc(Cl)cc1)P(=O)(O)O` (stereo not drawn) [Compound 4i], the half-maximal inhibitory concentration (IC50) in test [1] (setting [3]) was determined as 47.6 ± 4.4 nM.

Turning to `Cc1ccc(NC(=O)C(CC(C)C)n2cncn2)cc1` (stereo not drawn) [Compound 3n], the inhibition at 100 µM in test [1] was less than 10%.

As for `CC(C)CC(C(=O)Nc1ccc(Cl)c(Cl)c1)P(=O)(O)O` (stereo not drawn) [Compound 4c], in test [1] (LasB IC50, FRET-based assay), the half-maximal inhibitory concentration (IC50) is 25.7 ± 4.1 nM. The “fold more active than 4-acetyl (4g)” value in test [1] (vs 4g) turned out to be 1.6 fold. For the same molecule, in test [2], the inhibition at 1 µM is less than 10%.

In the case of `CC(C)CC(C(=O)Nc1cccc2ccccc12)P(=O)(O)O` (stereo not drawn) [Compound 4m], in test [1] (setting [3]), the 50% inhibitory concentration (IC50) came out at 69.1 ± 7.5 nM.

What is called Ki is a dissociation constant, usually derived from enzyme kinetics or from competition with a known ligand. Consider `CC(=O)c1ccc(NC(=O)C(CC(C)C)P(=O)(O)O)cc1` (stereo not drawn) [Compound 4g], for which the IC50 in test [1] (setting [3]) was 40.4 ± 11.6 nM. Moreover, in test [2], the “% inhibition ColH-PD @1 µM” value stood at 65%, the Ki came to 320 ± 70 nM and the “fold higher potency against ColH compared to 2” value was found to be 20 fold.

Regarding `CC(=O)c1ccc(NC(=O)CP(=O)(O)O)cc1` [Compound 2], the inhibition at 600 µM in test [1] (read-out: % LasB inhibition @600 µM) came out at 33 ± 4%.
